From article PMC4348036, “Structural and Functional Investigation of Flavin Binding Center of the NqrC Subunit of Sodium-Translocating NADH:Quinone Oxidoreductase from Vibrio harveyi” (PLoS ONE, 2015)

Biological target: T1, holoNqrC' (NqrC subunit of Na+-translocating NADH:quinone oxidoreductase, soluble flavin-binding domain) (Vibrio harveyi, UniProt K5TWQ4)
T1 construct: soluble truncated NqrC without N-terminal transmembrane helix, residues 33-261, C-terminal 6xHis tag; E. coli, co-expressed with flavin transferase ApbE (plasmids pMshC3 + pdhis3); model covers residues 36-261
T1 sequence (K5TWQ4 33-261): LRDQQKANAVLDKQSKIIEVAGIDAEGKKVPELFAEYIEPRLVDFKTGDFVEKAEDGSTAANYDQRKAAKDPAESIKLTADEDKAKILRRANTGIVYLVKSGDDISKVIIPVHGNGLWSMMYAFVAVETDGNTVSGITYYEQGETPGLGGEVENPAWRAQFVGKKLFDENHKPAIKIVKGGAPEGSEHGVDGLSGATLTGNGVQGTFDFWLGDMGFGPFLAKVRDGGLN
Test: X-ray crystallography, […] Å
Conditions: covalent; phosphoester bond to Thr229, attached in vivo by flavin transferase ApbE; pH 6.8

Cc1cc2nc3c(=O)[nH]c(=O)nc-3n(C[C@H](O)[C@H](O)[C@H](O)COP(=O)(O)O)c2cc1C [FMN]
X-ray crystallography, 1.56 Å: The electron density of Thr229 side chain unambiguously demonstrates its flavinylation.
